{
  "source": "patent US4311709A",
  "about": "“Loweralkyl substituted diphenyl polyamine as an antimicrobial agent” (priority 1979, dated 1982)",
  "key": {"[1]": {"system": "Gram positive, gram negative bacteria, certain yeasts and various fungi", "experiment": "Antimicrobial spectrum: bacteria, yeasts and fungi destroyed or rendered static", "assay_type": "cell-based"}, "[2]": {"system": "gram negative pathogens such as Pseudomonas species", "details": "background statement; cited from earlier work"}, "E. coli [3]": {"system": "E. coli", "experiment": "MIC on Mueller-Hinton agar plates, mastitis pathogens", "assay_type": "cell-based", "details": "Escherichia coli; 18-24 hours at 37° C.; less than one colony per plate; duplicate", "description": "(§1) The products of this inventions have a broad inhibitory spectrum and high potency. One test system employed seven different mastitis pathogens inoculated onto separate Mueller-Hinton agar plates which contained 1, 5, 10, 20, 40, 80 or 100 mcg./ml. of the cited dihydrochloride final concentration. After incubation for 18-24 hours at 37° C., the minimal inhibitory concentration was determined as that showing less than one colony per plate; all assays were made in duplicate. The MIC's in mcg./ml. observed were: Streptococcus dysgalactiae, 1; Streptococcus uberis, 1; Streptococcus agalactiae, 1; S. aureus, 5; E. coli, 5; Klebsiella sp., 5; and Pseudomonas aeruginosa, 80."}, "Klebsiella sp. [4]": {"system": "Klebsiella sp.", "experiment": "MIC on Mueller-Hinton agar plates, mastitis pathogens", "assay_type": "cell-based", "details": "18-24 hours at 37° C., less than one colony per plate, duplicate", "description": "as §1"}, "Pseudomonas aeruginosa [5]": {"system": "Pseudomonas aeruginosa", "experiment": "MIC on Mueller-Hinton agar plates, mastitis pathogens", "assay_type": "cell-based", "details": "18-24 hours at 37° C., less than one colony per plate, duplicate", "description": "as §1"}, "S. aureus [6]": {"system": "S. aureus", "experiment": "MIC on Mueller-Hinton agar plates, mastitis pathogens", "assay_type": "cell-based", "details": "Staphylococcus aureus; 18-24 hours at 37° C.; less than one colony per plate; duplicate", "description": "as §1"}, "Streptococcus agalactiae [7]": {"system": "Streptococcus agalactiae", "experiment": "MIC on Mueller-Hinton agar plates, mastitis pathogens", "assay_type": "cell-based", "details": "18-24 hours at 37° C., less than one colony per plate, duplicate", "description": "as §1"}, "[8]": {"system": "Streptococcus dysgalactiae", "experiment": "MIC on Mueller-Hinton agar plates, mastitis pathogens", "assay_type": "cell-based", "details": "18-24 hours at 37° C., less than one colony per plate, duplicate", "description": "as §1"}, "Streptococcus uberis [9]": {"system": "Streptococcus uberis", "experiment": "MIC on Mueller-Hinton agar plates, mastitis pathogens", "assay_type": "cell-based", "details": "18-24 hours at 37° C., less than one colony per plate, duplicate", "description": "as §1"}, "E. coli [10]": {"system": "E. coli", "experiment": "Excised cow's udder teat dip in vitro (modified National Mastitis Council's Protocol A)", "details": "Escherichia coli, 10 min, 0.5% solution", "description": "(§2) Additional efficacy studies were made using a laboratory modification of the National Mastitis Council's Protocol A with excised cow's udder in vitro. Prepared teats were dipped to a depth of approximately 15 mm. into a skim milk inoculum containing the test bacteria and then allowed to drain for 5 minutes. Then each teat was dipped into a distilled water solution of the cited dihydrochloride salt using concentrations which ranged from 0.05 up to 1% to a depth of 25 mm. After a period of 10 minutes the removal of any surviving organisms was accomplished by rinsing the teats using 5 ml. of a quenching solution of lecithin (0.05%), tween-80 (0.5%) and sodium thiosulfate (0.5%). The rinse solutions were diluted in sterile saline, plated on an appropriate medium and incubated at 37° C. for 18-20 hours. Colonies were then counted for only those plates with 15-300 colonies, and all dilutions were plated in duplicate. The percent reduction in microorganisms on the teat surfaces was determined using as controls the inoculated teats dipped in sterile distilled water. […] A 0.1% solution caused a 99% reduction for Pseudomonas aeruginosa."}, "Klebsiella sp. [11]": {"system": "Klebsiella sp.", "experiment": "Excised cow's udder teat dip in vitro (modified National Mastitis Council's Protocol A)", "details": "10 min, 0.5% solution", "description": "as §2"}, "Pseudomonas aeruginosa [12]": {"system": "Pseudomonas aeruginosa", "experiment": "Excised cow's udder teat dip in vitro (modified National Mastitis Council's Protocol A)", "details": "10 min", "description": "as §2"}, "S. aureus [13]": {"system": "S. aureus", "experiment": "Excised cow's udder teat dip in vitro (modified National Mastitis Council's Protocol A)", "details": "Staphylococcus aureus, 10 min, 0.5% solution", "description": "as §2"}, "Streptococcus agalactiae [14]": {"system": "Streptococcus agalactiae", "experiment": "Excised cow's udder teat dip in vitro (modified National Mastitis Council's Protocol A)", "details": "10 min, 0.5% solution", "description": "as §2"}, "[15]": {"system": "Streptococcus dysgalactiae", "experiment": "Excised cow's udder teat dip in vitro (modified National Mastitis Council's Protocol A)", "details": "10 min, 0.5% solution", "description": "as §2"}, "Streptococcus uberis [16]": {"system": "Streptococcus uberis", "experiment": "Excised cow's udder teat dip in vitro (modified National Mastitis Council's Protocol A)", "details": "10 min, 0.5% solution", "description": "as §2"}, "in vivo": {"experiment": "in vivo", "details": "mouse, mice, oral, 100 mg./ml. in 1% aqueous methylcellulose (100 cps), read-out: acute oral LD50", "excerpt": "(§3) Thus instead of contributing to or initiating skin cracking and drying the diaminopropanol derivative should promote healing of damaged skin areas whether inflicted mechanically, by weather conditions or as the result of exposure to toxic chemical treatments."}, "[17]": {"system": "intact or abraded dorsal skin of shaved areas (rabbits)", "experiment": "Skin irritation, occlusive dressing 24 hours", "assay_type": "in vivo", "excerpt": "as §3"}, "eye": {"system": "eye", "details": "in vivo", "excerpt": "as §3"}, "[18]": {"experiment": "Residues in milk after application to the udder", "assay_type": "in vivo, cow", "excerpt": "The sensitivity of the analytical method employed met the stringent criteria set by various governmental agencies."}, "[19]": {"experiment": "Toxicity and skin irritation, overall", "assay_type": "in vivo", "excerpt": "as §3"}},
  "data": [
    {"smiles": "CC(C)c1ccc(CCC(CCc2ccc(C(C)C)cc2)NCC(O)CN)cc1", "note": "(stereo not shown) [Example 1, 1-Amino-3-{{3-[4-(1-methylethyl)phenyl]-1-{2-[4-(1-methylethyl)phenyl]ethyl}propyl}amino]-2-propanol]", "values": [
      {"measurement": "concentrations by which many are controlled", "setting": "[1]; many organisms", "result": "one to one-hundred"},
      {"measurement": "concentrations by which bacteria, yeasts and fungi are destroyed or rendered static", "setting": "[1]; overall range", "result": "less than one to one-thousand"}
    ]},
    {"smiles": "[H]/N=C(\\N/C(=N/[H])NCCCCCCNC(=N)NC(=N)Nc1ccc(Cl)cc1)Nc1ccc(Cl)cc1", "note": "[chlorhexidine]", "values": [
      {"measurement": "effectiveness against gram negative pathogens", "setting": "[2]", "result": "poorly effective"}
    ]},
    {"smiles": "CC(C)c1ccc(CCC(CCc2ccc(C(C)C)cc2)NCC(O)CN)cc1.Cl.Cl.O", "note": "(stereo not shown) [cited dihydrochloride, 1-amino-3-{{3-[4-(1-methylethyl)phenyl]-1-{2-[4-(1-methylethyl)phenyl]ethyl}propyl}amino]-2-propanol dihydrochloride monohydrate]", "values": [
      {"measurement": "MIC", "setting": "E. coli [3]", "result": 5, "unit": "µg/mL"},
      {"measurement": "MIC", "setting": "Klebsiella sp. [4]", "result": 5, "unit": "µg/mL"},
      {"measurement": "MIC", "setting": "Pseudomonas aeruginosa [5]", "result": 80, "unit": "µg/mL"},
      {"measurement": "MIC", "setting": "S. aureus [6]", "result": 5, "unit": "µg/mL"},
      {"measurement": "MIC", "setting": "Streptococcus agalactiae [7]", "result": 1, "unit": "µg/mL"},
      {"measurement": "MIC", "setting": "[8]", "result": 1, "unit": "µg/mL"},
      {"measurement": "MIC", "setting": "Streptococcus uberis [9]", "result": 1, "unit": "µg/mL"},
      {"measurement": "killing at 0.5 %", "setting": "E. coli [10]", "result": "> 99.8", "unit": "%"},
      {"measurement": "killing at 0.5 %", "setting": "Klebsiella sp. [11]", "result": "> 99.8", "unit": "%"},
      {"measurement": "killing at 0.1 %", "setting": "Pseudomonas aeruginosa [12]; 0.1% solution, read-out: reduction", "result": 99, "unit": "%"},
      {"measurement": "killing at 0.5 %", "setting": "Pseudomonas aeruginosa [12]; 0.5% solution", "result": "> 99.8", "unit": "%"},
      {"measurement": "killing at 0.5 %", "setting": "S. aureus [13]", "result": "98 to 99.8", "unit": "%"},
      {"measurement": "killing at 0.5 %", "setting": "Streptococcus agalactiae [14]", "result": "> 99.8", "unit": "%"},
      {"measurement": "killing at 0.5 %", "setting": "[15]", "result": "98 to 99.8", "unit": "%"},
      {"measurement": "killing at 0.5 %", "setting": "Streptococcus uberis [16]", "result": "> 99.8", "unit": "%"},
      {"measurement": "LD50", "setting": "in vivo", "result": 1300, "unit": "mg/kg"},
      {"measurement": "skin irritation", "setting": "[17]; 1% solution in distilled water, intact or abraded skin, 24 hours occlusive, observed two weeks", "result": "essentially non-irritating"},
      {"measurement": "skin irritation", "setting": "[17]; 5% in distilled water", "result": "slightly irritating"},
      {"measurement": "signs of skin irritation remaining", "setting": "[17]; 5% in distilled water, after seven days", "result": "no signs remaining after seven days"},
      {"measurement": "eye irritation", "setting": "eye", "result": "very slightly irritating"},
      {"measurement": "time for eye effects to disappear", "setting": "eye", "result": "≤ 24", "unit": "h"},
      {"measurement": "residues in the milk", "setting": "[18]; 1% solution applied to the udder, preliminary experiments", "result": "no detectable residues"},
      {"measurement": "skin penetration", "setting": "[18]; bovine", "result": "appears unable to penetrate the skin"},
      {"measurement": "skin irritation, overall", "setting": "[19]; in vivo", "result": "practically non-irritating on skin"},
      {"measurement": "toxicity", "setting": "[19]; overall statement", "result": "low toxicity"}
    ]}
  ]
}
